Drawing on patent US20110065916A1, “METHOD OF MAKING IMIDAZOAZEPINONE COMPOUNDS” (priority 2007, published 2011), this text covers IC50 for 57 molecules.

The IC50 is the point on the concentration scale where inhibition reaches its midpoint. High values mean weaker potency, low ones greater potency.

In this test the test system is human T-bet. Nature of the test: HEKT-bet-luc assay (normalized HEKT-bet IC50). The settings on record: Homo sapiens, HEK293, 24 h, Table 4, engineered HEK cells, compound 24 hours, normalized to reference ER-819544. In kind it is cell-based. The protocol:
HEKT-bet-luc assay: This assay measures a T-bet dependent reporter (luciferase) activity in engineered HEK cells that express a human T-bet and a T-box responsive element driving luciferase reporter. HEKT-bet cells were plated at 2×10^4/well in 96-well plate and compound was added into cell culture for 24 hours. Luciferase activity was measured by adding 50 μl of Steady-Glo reagent (Promega) and samples were read in Victor V reader (PerkinElmer). The activity of compound was determined by comparing compound treated samples to non-compound treated vehicle controls. The IC50 values were calculated utilizing a maximum value corresponding to the amount of luciferase in the absence of a test compound and a minimum value corresponding to a test compound value obtained at maximum inhibition.
Determination of Normalized HEKT-bet IC50 values: Compounds were assayed in microtiter plates. Each plate included a reference compound which was ER-819544. The un-normalized IC50 value for a particular compound was divided by the IC50 value determined for the reference compound in the same microtiter plate to provide a relative potency value. The relative potency value was then multiplied by the established potency of the reference compound to provide the normalized HEKT-bet IC50 value. […] The IC50 values provided herein were obtained using this normalization method.
`COc1cc2c(c(OC)c1)[C@@H](C)C=C1N(C2)C(=O)N(CCO)C12CCN(Cc1cc(C)cc(C)c1)CC2` (single isomer, unassigned) [ER-819786] yielded a half-inhibitory concentration (IC50) of 30 nM. Under `COc1cc2c(c(OC)c1)[C@H](C)C=C1N(C2)C(=O)N(CCO)C12CCN(Cc1cc(C)cc(C)c1)CC2` (single isomer, unassigned) [ER-819787] stands 170 nM. `COc1cc2c(c(OC)c1)[C@@H](C)C=C1N(C2)C(=O)N(C[C@@H](O)CO)C12CCN(Cc1cc(C)cc(C)c1)CC2` (single isomer, unassigned) [ER-819788] showed an IC50 of 30 nM. The molecule `COc1cc2c(c(OC)c1)[C@H](C)C=C1N(C2)C(=O)N(C[C@@H](O)CO)C12CCN(Cc1cc(C)cc(C)c1)CC2` (single isomer, unassigned) [ER-819789] returned an IC50 of 170 nM. With `C=C(C)CN1C(=O)N2Cc3cc(OC)cc(OC)c3[C@@H](C)C=C2C12CCN(Cc1cc(C)cc(C)c1)CC2` (single isomer, unassigned) [ER-820006] the figure was 60 nM; with `C=C(C)CN1C(=O)N2Cc3cc(OC)cc(OC)c3[C@H](C)C=C2C12CCN(Cc1cc(C)cc(C)c1)CC2` (single isomer, unassigned) [ER-820007], 1260 nM.

For the molecule `CCN1C(=O)N2Cc3cc(OC)cc(OC)c3[C@@H](C)C=C2C12CCN(Cc1nccn1C)CC2` [ER-811278-01], inhibition was half-maximal at 37 nM (IC50). With `CCN1C(=O)N2Cc3cc(OC)cc(OC)c3[C@@H](C)C=C2C12CCN(Cc1csnn1)CC2` [ER-811279-01] the figure was 210 nM; with `CCN1C(=O)N2Cc3cc(OC)cc(OC)c3[C@@H](C)C=C2C12CCN(Cc1nc(C)oc1C)CC2` [ER-811283-01], 53 nM; with `CCN1C(=O)N2Cc3cc(OC)cc(OC)c3[C@@H](C)C=C2C12CCN(Cc1ccc3nccn3c1)CC2` [ER-811284-01], 88 nM. With `CCN1C(=O)N2Cc3cc(OC)cc(OC)c3[C@@H](C)C=C2C12CCN(Cc1cccc3c1OCCO3)CC2` [ER-811291-01] the figure was 120 nM; with `CCN1C(=O)N2Cc3cc(OC)cc(OC)c3[C@@H](C)C=C2C12CCN(Cc1cn3ccccc3n1)CC2` [ER-811292-01], 130 nM; with `CCN1C(=O)N2Cc3cc(OC)cc(OC)c3[C@@H](C)C=C2C12CCN(Cc1cnc3ccccc3n1)CC2` [ER-811297-01], 74 nM. `CCN1C(=O)N2Cc3cc(OC)cc(OC)c3[C@@H](C)C=C2C12CCN(Cc1cccc3[nH]ccc13)CC2` [ER-811300-01] had a half-maximal inhibitory concentration (IC50) of 35 nM. Under `CCN1C(=O)N2Cc3cc(OC)cc(OC)c3[C@@H](C)C=C2C12CCN(Cc1cc3nccnc3s1)CC2` [ER-811301-01] stands 260 nM; under `CCN1C(=O)N2Cc3cc(OC)cc(OC)c3[C@@H](C)C=C2C12CCN(Cc1cccc(-n3cncn3)c1)CC2` [ER-811302-01], 250 nM. With `CCN1C(=O)N2Cc3cc(OC)cc(OC)c3[C@@H](C)C=C2C12CCN(Cc1ccc3occc3c1)CC2` [ER-811304-01] the figure was 100 nM.

For `CCN1C(=O)N2Cc3cc(OC)cc(OC)c3[C@@H](C)C=C2C12CCN(Cc1c(C)nc3ccccn13)CC2` [ER-811305-01], the IC50 was determined as 31 nM. With `CCN1C(=O)N2Cc3cc(OC)cc(OC)c3[C@@H](C)C=C2C12CCN(Cc1cccc3c1OCC3)CC2` [ER-811306-01] the figure was 100 nM. Under `CCN1C(=O)N2Cc3cc(OC)cc(OC)c3[C@@H](C)C=C2C12CCN(Cc1cc3ccccc3o1)CC2` [ER-811308-01] stands 56 nM; under `CCN1C(=O)N2Cc3cc(OC)cc(OC)c3[C@@H](C)C=C2C12CCN(Cc1cn3ccsc3n1)CC2` [ER-811309-01], 130 nM. Molecule `CCN1C(=O)N2Cc3cc(OC)cc(OC)c3[C@@H](C)C=C2C12CCN(Cc1c3ccccc3nn1C)CC2` [ER-811312-01] registered an IC50 of 77 nM. Against the preceding molecule, the IC50 is about 1.7-fold lower. As to `CCN1C(=O)N2Cc3cc(OC)cc(OC)c3[C@@H](C)C=C2C12CCN(Cc1cccc(-n3cccn3)c1)CC2` [ER-811317-01], 74 nM corresponded to half-maximal inhibition (IC50). The IC50 values of the last two molecules are within 1.5-fold of each other. Regarding `CCN1C(=O)N2Cc3cc(OC)cc(OC)c3[C@@H](C)C=C2C12CCN(Cc1ccc3ccccc3n1)CC2` [ER-811323-01], the IC50 was 42 nM. This IC50 lies about 1.8-fold lower than the previous one. In turn, `CCN1C(=O)N2Cc3cc(OC)cc(OC)c3[C@@H](C)C=C2C12CCN(Cc1cccc3nsnc13)CC2` [ER-811332-01] showed a concentration for half-maximal inhibition (IC50) of 67 nM. This IC50 is about 1.6-fold higher than that of the molecule before. With `CCN1C(=O)N2Cc3cc(OC)cc(OC)c3[C@@H](C)C=C2C12CCN(Cc1c(-c3ccc(F)cc3)nc3ncccn13)CC2` [ER-811346-02] the figure was 200 nM; with `CCN1C(=O)N2Cc3cc(OC)cc(OC)c3[C@@H](C)C=C2C12CCN(Cc1cccc3c1ccn3C)CC2` [ER-811349-01], 43 nM. Under `CCN1C(=O)N2Cc3cc(OC)cc(OC)c3[C@@H](C)C=C2C12CCN(Cc1c(C)nc3sccn13)CC2` [ER-811352-02] stands 13 nM; under `CCN1C(=O)N2Cc3cc(OC)cc(OC)c3[C@@H](C)C=C2C12CCN(Cc1cccn1C(C)C)CC2` [ER-811358-01], 220 nM. With `CCN1C(=O)N2Cc3cc(OC)cc(OC)c3[C@@H](C)C=C2C12CCN(Cc1cccn1C(C)(C)C)CC2` [ER-811359-01] the figure was 270 nM; with `CCN1C(=O)N2Cc3cc(OC)cc(OC)c3[C@@H](C)C=C2C12CCN(Cc1cc(C)sc1C)CC2` [ER-811365-01], 84 nM.

As for `CCN1C(=O)N2Cc3cc(OC)cc(OC)c3[C@@H](C)C=C2C12CCN(Cc1cc(C)cc(C)c1)CC2` [ER-819762], half-maximal inhibition (IC50) was put at 40 nM. With `CCN1C(=O)N2Cc3cc(OC)cc(OC)c3[C@H](C)C=C2C12CCN(Cc1cc(C)cc(C)c1)CC2` [ER-819763], the IC50 came out at 550 nM.

`CCN1C(=O)N2Cc3cc(OC)cc(OC)c3[C@@H](C)C=C2C12CCN(Cc1cnc[nH]1)CC2` [ER-819780-01] gave an IC50 of 200 nM. Against the preceding molecule, the IC50 is about 2.8-fold lower. Consider `CCN1C(=O)N2Cc3cc(OC)cc(OC)c3[C@@H](C)C=C2C12CCN(Cc1c[nH]c3ccccc13)CC2` [ER-819783-01], for which it took 35 nM to reach half-maximal inhibition (IC50). For the molecule `CCN1C(=O)N2Cc3cc(OC)cc(OC)c3[C@@H](C)C=C2C12CCN(Cc1nn(C)c3ccccc13)CC2` [ER-819800-01], the IC50 is 23 nM. Against the preceding molecule, the IC50 is about 1.5-fold lower. For the molecule `CCN1C(=O)N2Cc3cc(OC)cc(OC)c3[C@@H](C)C=C2C12CCN(Cc1cn(C)c3ccccc13)CC2` [ER-819804-01], the 50% inhibitory concentration (IC50) was 40 nM. Against the preceding molecule, the IC50 is about 1.7-fold higher. Molecule `CCN1C(=O)N2Cc3cc(OC)cc(OC)c3[C@@H](C)C=C2C12CCN(Cc1cn(C(C)=O)c3ccccc13)CC2` [ER-819808-01] yielded a half-maximal inhibitory concentration (IC50) of 140 nM. This IC50 is about 3.5-fold higher than that of the molecule before. Under `CCN1C(=O)N2Cc3cc(OC)cc(OC)c3[C@@H](C)C=C2C12CCN(Cc1cnoc1C)CC2` [ER-819810-01] stands 12 nM. With `CCN1C(=O)N2Cc3cc(OC)cc(OC)c3[C@@H](C)C=C2C12CCN(Cc1ccc(/C=C/c3ccccc3)cc1)CC2` [ER-819814-01] the figure was 300 nM; with `CCN1C(=O)N2Cc3cc(OC)cc(OC)c3[C@@H](C)C=C2C12CCN(Cc1ccc3nn[nH]c3c1)CC2` [ER-819820-01], 90 nM. `CCN1C(=O)N2Cc3cc(OC)cc(OC)c3[C@@H](C)C=C2C12CCN(Cc1c[nH]nc1C)CC2` [ER-819826-01] displayed an IC50 of 67 nM. Under `CCN1C(=O)N2Cc3cc(OC)cc(OC)c3[C@@H](C)C=C2C12CCN(Cc1cccnc1C)CC2` [ER-819832-01] stands 57 nM. Under `CCN1C(=O)N2Cc3cc(OC)cc(OC)c3[C@@H](C)C=C2C12CCN(Cc1cccnc1OC)CC2` [ER-819833-01] stands 47 nM. Under `CCN1C(=O)N2Cc3cc(OC)cc(OC)c3[C@@H](C)C=C2C12CCN(Cc1cnc3ccccc3c1)CC2` [ER-819837-01] stands 56 nM; under `CCN1C(=O)N2Cc3cc(OC)cc(OC)c3[C@@H](C)C=C2C12CCN(Cc1sncc1C)CC2` [ER-819842-01], 81 nM. `CCN1C(=O)N2Cc3cc(OC)cc(OC)c3[C@@H](C)C=C2C12CCN(Cc1ccc3cc[nH]c3c1)CC2` [ER-819844-01] came in with a 50% inhibitory concentration (IC50) of 67 nM. With `CCN1C(=O)N2Cc3cc(OC)cc(OC)c3[C@@H](C)C=C2C12CCN(Cc1ccc3nn(C)nc3c1)CC2` [ER-819847-01] the figure was 35 nM; with `CCN1C(=O)N2Cc3cc(OC)cc(OC)c3[C@@H](C)C=C2C12CCN(Cc1cccn1-c1ccccc1C(F)(F)F)CC2` [ER-819849-01], 220 nM; with `CCN1C(=O)N2Cc3cc(O)cc(O)c3[C@@H](C)C=C2C12CCN(Cc1cc(C)cc(C)c1)CC2` [ER-819888-00], 300 nM. Under `CCN1C(=O)N2Cc3cc(OC)cc(OC)c3[C@@H](C)C=C2C12CCN(Cc1cccn1C)CC2` [ER-819924] stands 50 nM; under `CCN1C(=O)N2Cc3cc(OC)cc(OC)c3[C@H](C)C=C2C12CCN(Cc1cccn1C)CC2` [ER-819925], 320 nM; under `CCN1C(=O)N2Cc3cc(OC)cc(OC)c3[C@@H](C)C=C2C12CCN(Cc1nc3ccccc3n1C)CC2` [ER-819926], 40 nM. `CCN1C(=O)N2Cc3cc(OC)cc(OC)c3[C@H](C)C=C2C12CCN(Cc1nc3ccccc3n1C)CC2` [ER-819927] registered a 50% inhibitory concentration (IC50) of 210 nM. With `CCN1C(=O)N2Cc3cc(OC)cc(OC)c3[C@@H](C)C=C2C12CCN(Cc1cc(C)c(F)c(C)c1)CC2` [ER-819931] the figure was 70 nM.

`CCN1C(=O)N2Cc3cc(OC)cc(OC)c3[C@@H](C)C=C2C12CCN(Cc1ccc(F)c(OC(F)(F)F)c1)CC2` [ER-819933]: the IC50 was determined as 1150 nM. Under `CCN1C(=O)N2Cc3cc(OC)cc(OC)c3[C@@H](C)C=C2C12CCN(Cc1c(F)ccc(C)c1F)CC2` [ER-819934] stands 100 nM.
